Test results: ChEMBL document CHEMBL2157948, “Design, synthesis, and structure-activity-relationship of phenyl imidazoles as potent Smoothened antagonists” (Bioorg Med Chem Lett, 2012)
pIC50: −log10 of the molar value. Values after ≈ are worked out from the molar mass of the structure shown.

How the values were obtained:
[1] = target: T1, Protein smoothened (Mus musculus, UniProt P56726); assay: Antagonist activity at Smo in mouse TM3 cells expressing Hh12 assessed as inhibition of 1 nM Ag1.5-induced Gli expression incubated for 30 mins prior to Ag1.5-induction measured after 48 hrs by luciferase reporter gene assay; assay type: functional, cell-based
T1 sequence (P56726 whole entry): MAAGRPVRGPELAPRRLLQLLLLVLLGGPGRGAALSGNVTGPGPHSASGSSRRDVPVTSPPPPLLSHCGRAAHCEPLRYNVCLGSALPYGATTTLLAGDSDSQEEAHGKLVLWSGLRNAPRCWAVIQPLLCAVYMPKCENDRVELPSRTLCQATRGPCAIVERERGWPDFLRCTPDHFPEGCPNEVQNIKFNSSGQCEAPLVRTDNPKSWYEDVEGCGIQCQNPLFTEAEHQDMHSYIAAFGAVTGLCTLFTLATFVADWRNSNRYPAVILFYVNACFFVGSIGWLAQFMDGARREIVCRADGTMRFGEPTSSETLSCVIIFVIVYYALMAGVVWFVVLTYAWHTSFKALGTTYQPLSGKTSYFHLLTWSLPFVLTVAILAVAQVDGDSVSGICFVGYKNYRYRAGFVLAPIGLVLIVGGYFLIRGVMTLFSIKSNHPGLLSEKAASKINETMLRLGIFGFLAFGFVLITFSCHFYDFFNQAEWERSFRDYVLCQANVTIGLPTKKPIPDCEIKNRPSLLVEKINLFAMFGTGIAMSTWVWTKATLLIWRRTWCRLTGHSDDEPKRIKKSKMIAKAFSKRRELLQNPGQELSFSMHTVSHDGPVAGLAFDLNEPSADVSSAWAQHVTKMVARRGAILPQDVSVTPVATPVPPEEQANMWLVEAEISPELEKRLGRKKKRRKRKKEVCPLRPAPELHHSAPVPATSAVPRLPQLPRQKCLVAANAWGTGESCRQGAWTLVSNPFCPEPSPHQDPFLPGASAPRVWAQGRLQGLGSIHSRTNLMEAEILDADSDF

[2] = target: T1, Protein smoothened; assay: Antagonist activity at Smo in mouse TM3 cells expressing Hh12 assessed as inhibition of 25 nM Ag1.5-induced Gli expression incubated for 30 mins prior to Ag1.5-induction measured after 48 hrs by luciferase reporter gene assay; assay type: functional, cell-based
[3] = test system: Mus musculus; assay: Dose normalised AUC in po dosed mouse; assay type: ADME, organism-based; conditions: in vivo
[4] = test system: Mus musculus; assay: Clearance in po dosed mouse; assay type: ADME, organism-based; conditions: in vivo
[5] = target: Protein smoothened (Homo sapiens, UniProt Q99835); assay: Antagonist activity at human Smo expressed in CHO cells assessed as inhibition of BODIPY-cyclopamine binding after 4 hrs by fluorescence assay; assay type: cell-based
Sequence of Protein smoothened (Homo sapiens, UniProt Q99835) (Q99835 whole entry): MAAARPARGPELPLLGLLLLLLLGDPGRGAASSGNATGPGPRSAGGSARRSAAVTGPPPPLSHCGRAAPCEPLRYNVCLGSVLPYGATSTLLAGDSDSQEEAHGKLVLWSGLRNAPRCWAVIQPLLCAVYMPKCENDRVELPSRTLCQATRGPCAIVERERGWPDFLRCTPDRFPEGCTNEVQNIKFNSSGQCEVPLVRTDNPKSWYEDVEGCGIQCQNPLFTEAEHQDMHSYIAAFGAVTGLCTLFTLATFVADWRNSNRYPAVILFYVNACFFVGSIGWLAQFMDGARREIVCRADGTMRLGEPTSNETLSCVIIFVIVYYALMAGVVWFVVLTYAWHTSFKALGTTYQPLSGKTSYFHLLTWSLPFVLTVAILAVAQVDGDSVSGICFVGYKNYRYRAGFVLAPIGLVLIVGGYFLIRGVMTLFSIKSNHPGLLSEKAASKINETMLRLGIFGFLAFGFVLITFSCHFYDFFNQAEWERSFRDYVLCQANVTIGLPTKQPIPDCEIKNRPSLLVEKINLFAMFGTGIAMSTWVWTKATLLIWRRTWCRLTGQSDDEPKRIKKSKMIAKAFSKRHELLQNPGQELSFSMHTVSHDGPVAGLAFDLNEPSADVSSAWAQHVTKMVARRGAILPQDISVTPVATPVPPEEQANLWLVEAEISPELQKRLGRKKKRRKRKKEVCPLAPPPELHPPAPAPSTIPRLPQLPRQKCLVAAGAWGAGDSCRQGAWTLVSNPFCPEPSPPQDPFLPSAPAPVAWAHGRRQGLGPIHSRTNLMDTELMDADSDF

[6] = target: T1, Protein smoothened; assay: Antagonist activity at mouse Smo expressed in CHO cells assessed as inhibition of BODIPY-cyclopamine binding after 4 hrs by fluorescence assay; assay type: cell-based
[7] = Aqueous solubility of the compound at pH 7; assay type: physicochemical
[8] = Aqueous solubility of the compound at pH 1; assay type: physicochemical
[9] = Plasma protein binding in rat; assay type: ADME, cell-free; conditions: read-out: PPB (converted)
[10] = Plasma protein binding in human; assay type: ADME, cell-free; conditions: read-out: PPB (converted)
[11] = Permeability of the compound by PAMPA assay; assay type: ADME
[12] = Clearance in mouse; assay type: ADME, organism-based; conditions: in vivo
[13] = Volume of distribution at steady state in mouse; assay type: ADME, organism-based; conditions: in vivo, read-out: Vdss
[14] = Mean residence time in mouse; assay type: ADME, organism-based; conditions: in vivo
[15] = Oral bioavailability in mouse; assay type: ADME, organism-based; conditions: in vivo
[16] = Clearance in rat at 3 to 30 mg/kg; assay type: ADME, organism-based; design: dose 3-30 mg/kg; conditions: in vivo
[17] = Volume of distribution at steady state in rat at 3 to 30 mg/kg; assay type: ADME, organism-based; design: dose 3-30 mg/kg; conditions: in vivo, read-out: Vdss
[18] = Mean residence time in rat at 3 to 30 mg/kg; assay type: ADME, organism-based; design: dose 3-30 mg/kg; conditions: in vivo
[19] = Oral bioavailability in rat at 3 to 30 mg/kg; assay type: ADME, organism-based; conditions: in vivo
[20] = Ratio of drug uptake in brain to plasma in mouse; assay type: ADME, organism-based; conditions: read-out: BPR

C[C@@H]1CN(c2ccc3c(Nc4ccc(Cl)c(-c5ncc(-c6ccccc6)[nH]5)c4)nccc3n2)CCO1
pIC50 [1]: 9.22
pIC50 [2]: 7.96
AUC/dose [3]: 881 nM·h
clearance [4]: 32 mL/min/kg
pIC50 [5]: 8.40
pIC50 [6]: 8.80
solubility [7]: < 1 µg/mL
solubility [8]: 93 µg/mL (≈ 187 µM)
fraction unbound [9]: 0.015
fraction unbound [10]: 0.039
permeability [11]: permeable
clearance [12]: 32 mL/min/kg
Vd [13]: 1.07 L/kg
MRT [14]: 0.56 h
bioavailability [15]: 82%
clearance [16]: 5 mL/min/kg
Vd [17]: 1 L/kg
MRT [18]: 3.33 h
bioavailability [19]: 53%
Kp [20]: 0.4

C[C@@H]1CN(c2ccc3c(Nc4ccc(Cl)c(-c5nc(-c6ccccc6)c[nH]5)c4)nccc3n2)C[C@H](C)O1
pIC50 [1]: 9.70
pIC50 [2]: 8.22
AUC/dose [3]: 268 nM·h
clearance [4]: 33.1 mL/min/kg

C[C@@H]1CN(c2cnc3c(Nc4ccc(Cl)c(-c5nc(-c6ccccc6)c[nH]5)c4)cccc3n2)C[C@H](C)O1
pIC50 [1]: 8.52
pIC50 [2]: 7.46

C[C@@H]1CN(c2ccc3c(Nc4ccc(Cl)c(-c5ncc(-c6ccccc6)[nH]5)c4)cccc3n2)C[C@H](C)O1
pIC50 [1]: 9.52
pIC50 [2]: 8.30
AUC/dose [3]: 492 nM·h

C[C@@H]1CN(c2ccc3c(Nc4ccc(Cl)c(-c5nc(-c6ccccc6)c[nH]5)c4)ccnc3c2)C[C@H](C)O1
pIC50 [1]: 9.40
pIC50 [2]: 8.10
AUC/dose [3]: 0 nM·h

C[C@@H]1CN(c2ccc3c(Nc4ccc(Cl)c(-c5ncc(-c6ccccc6)[nH]5)c4)nccc3c2)C[C@H](C)O1
AUC/dose [3]: 499 nM·h
clearance [4]: 24.7 mL/min/kg

O=S1(=O)CCN(c2ccc3c(Nc4ccc(Cl)c(-c5nc(-c6ccccc6)c[nH]5)c4)nccc3c2)CC1
pIC50 [1]: 8.70
pIC50 [2]: 7.51

C[C@@H]1CN(c2ccc3c(Nc4ccc(Cl)c(-c5ncc(-c6ccccc6)[nH]5)c4)nccc3c2)CCO1
pIC50 [1]: 10.00
pIC50 [2]: 8.80
AUC/dose [3]: 533 nM·h
clearance [4]: 30.9 mL/min/kg

Clc1ccc(Nc2nccc3ccccc23)cc1-c1ncc(-c2ccccc2)[nH]1
pIC50 [1]: 7.72
pIC50 [2]: 6.80

Clc1ccc(Nc2nccc3cc(N4CCOCC4)ccc23)cc1-c1ncc(-c2ccccc2)[nH]1
pIC50 [1]: 10.00
pIC50 [2]: 8.59
AUC/dose [3]: 101 nM·h

Cc1ccc(NC(=O)c2ccc(N3CCOCC3)cc2)cc1-c1nc(-c2ccccc2)c[nH]1
pIC50 [1]: 9.70
